# Measurements as given in patent US8273389B2, “Compositions comprising cinnamon oil (and/or its component cinnamaldehyde) and diallyl disulfide, their formulations, and methods of use” (Valent BioSciences Corporation, priority 2008, dated 2012).
# Tested on: Meloidogyne incognita (Root-knot nematode)
# Test: Greenhouse pot test, root galling of cucumber seedlings by root-knot nematode
# Type: in vivo
# Conditions: 25 ml soil drench, 800 J2 per pot, rated after 12-15 days, 0 = no galls, 9 = heavy galling; for Average Gall Rating (0-9): Example 2, 300 ppm AI (combined total for mixtures), nematode control 9; for Gall Rating (0-9): Example 3, 300 ppm AI (combined total for mixture), nematode control 8.25
# Procedure: Tests are conducted in 2″ pots containing 125 grams non-pasteurized 2:1 sand soil mix containing 2 cucumber seedlings at the 1st true leaf stage (var. Straight Eight). Each treatment consists of 4 replicate pots. Application of test materials is carried out by drenching each pot with 25 milliliters of an aqueous dispersion of the formulation being tested. Several hours after the test materials are applied, 800, second stage juveniles (J2) of freshly hatched Meloidogyne incognita (Root-knot nematode), are applied to each pot with the exception of the untreated control. The pots are maintained for 12-15 days at standard greenhouse temperature and lighting conditions and watered as needed for the duration of the test. At harvest, the soil is removed from the roots by rinsing the roots in water. The roots are then rated for galling on a scale from 0-9 where 0 represents no galls and 9 represents heavy galling.
# Tests are conducted in 2″ pots, as explained in Example 2 above.
SMILES,Average Gall Rating (0-9),Gall Rating (0-9)
"O=CC=Cc1ccccc1 [Cinnamaldehyde, cinnamaldehyde]",7.75,9
"C=CCSSCC=C [Allyl disulfide (BAB-0294-75), diallyl disulfide]",5,3.25
